Assay results as given in patent US11427553B2, “Dihydrooxadiazinones” (Bayer Aktiengesellschaft, priority 2017, dated 2022).

Key:
HeLa cells = assay: Assay 1 cell proliferation measurement (CTG, 72 h), HeLa; assay type: cell-based, human; details: Homo sapiens, HeLa; Assay 1, 72 h, Cell Titer Glo; read-out: HeLa IC50 [nM] (Cervical cancer)
Outline: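 CTG luminescence readout after 72 h compound exposure at 37 °C; 10-point 2.5-fold dilutions from 100 nM max final; DMSO 0.3% vehicle. IC50 from 4-parameter fit, normalised to 0 h plate (max inhibition) and DMSO (min inhibition).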

SK-MEL-3 cells = assay: Assay 1 cell proliferation measurement (CTG, 72 h), SK-MEL-3; assay type: cell-based, human; details: Homo sapiens, SK-MEL3; Assay 1, 72 h, Cell Titer Glo; read-out: SK-MEL-3 IC50 [nM] (melanoma)
Procedure: Cell Proliferation Measurement
The antiproliferative activity of the compounds of the general formula (I) was examined in vitro in human cancer cells. For this purpose, the appropriate number of cells (Hela: 800; SK-MEL-3: 1000; A549: 800) were plated in 384-well plates with appropriate growth medium ((A549: DMEM/Ham's F12 (Biochrom; #FG 4815 with stabile Glutamine), FCS 10% final (Biochrom; #S 0415); Hela: DMEM/Ham's F12 (Biochrom; #FG 4815 with stabile Glutamine), FCS 10% final (Biochrom; #S 0415); SK-MEL-3: McCoy's 5A (Biochrom; #F 1015), FCS 10% final (Biochrom; #S 0415), L-Alanyl-L-Glutamine final: 2 mM, (Biochrom; #K 0302)) and incubated at 37° C. overnight. After 24 h, cells on one plate (0 h plate) were treated with 30 μl/cavity of CTG solution (Promega Cell Titer Glo (catalogue #G755B and G756B)) and incubated at room temperature for 10 min, and luminescence was measured by means of a VICTOR V (Perkin Elmer), in order to determine cell viability on commencement of treatment. The cells on the test plate were treated with the compounds of the general formula (I) as and incubated at 37° C. for 72 h. The compounds were added to the cells by means of an HP D300 digital dispenser in a 10-step 2.5-fold dilution series generally starting at a maximum final drug concentration of 100 nM. As control, the cells were treated with vehicle (DMSO at 0.3% final concentration). After 72 h, the cells were treated with 30 μl/cavity of CTG solution (Promega Cell Titer Glo (catalogue #G755B and G756B)) and incubated at room temperature for 10 min. and luminescence was measured by means of a VICTOR V (Perkin Elmer), in order to determine cell viability at the end of treatment. The percentage effect on cell growth and the IC50 derived therefrom were determined for each test substance using the values from the 0 h plate […] and the DMSO control […]. The IC50 values were calculated using a 4-parameter fit.

human full length PDE3A = human full length PDE3A (Homo sapiens (Human), UniProt Q14432); assay: Assay 4 PDE3A enzyme inhibition (3H-cAMP SPA); assay type: biochemical; details: Sf9 cell extract
Sequence of human full length PDE3A (Q14432 whole entry): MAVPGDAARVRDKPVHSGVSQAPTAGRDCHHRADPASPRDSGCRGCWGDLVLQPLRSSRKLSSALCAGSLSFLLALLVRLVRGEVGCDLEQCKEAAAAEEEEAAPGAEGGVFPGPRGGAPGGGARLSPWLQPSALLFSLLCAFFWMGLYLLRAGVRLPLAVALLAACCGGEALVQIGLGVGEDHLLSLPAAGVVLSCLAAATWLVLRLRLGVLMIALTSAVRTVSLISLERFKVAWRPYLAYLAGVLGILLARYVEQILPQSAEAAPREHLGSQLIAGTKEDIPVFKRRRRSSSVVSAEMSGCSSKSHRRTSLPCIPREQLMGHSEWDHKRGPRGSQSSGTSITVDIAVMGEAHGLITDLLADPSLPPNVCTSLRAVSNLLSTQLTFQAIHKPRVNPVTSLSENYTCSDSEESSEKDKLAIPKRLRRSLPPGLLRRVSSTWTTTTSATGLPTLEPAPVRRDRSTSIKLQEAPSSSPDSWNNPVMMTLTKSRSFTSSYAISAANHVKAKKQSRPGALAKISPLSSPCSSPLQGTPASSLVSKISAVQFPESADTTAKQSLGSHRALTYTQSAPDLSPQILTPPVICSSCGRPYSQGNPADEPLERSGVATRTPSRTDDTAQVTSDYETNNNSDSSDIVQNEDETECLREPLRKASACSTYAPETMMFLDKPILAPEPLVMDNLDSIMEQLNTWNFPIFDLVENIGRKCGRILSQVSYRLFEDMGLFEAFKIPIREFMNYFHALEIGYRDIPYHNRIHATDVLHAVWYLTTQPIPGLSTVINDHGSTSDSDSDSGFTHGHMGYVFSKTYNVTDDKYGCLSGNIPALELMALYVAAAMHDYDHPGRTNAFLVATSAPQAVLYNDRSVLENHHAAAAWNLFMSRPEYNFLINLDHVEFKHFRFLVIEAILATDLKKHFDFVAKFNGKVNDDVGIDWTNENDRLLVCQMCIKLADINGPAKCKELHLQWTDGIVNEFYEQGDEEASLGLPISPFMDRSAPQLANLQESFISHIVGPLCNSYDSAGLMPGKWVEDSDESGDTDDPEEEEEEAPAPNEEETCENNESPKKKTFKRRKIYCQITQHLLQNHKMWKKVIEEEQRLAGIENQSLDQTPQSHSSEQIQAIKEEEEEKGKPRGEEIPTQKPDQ
Outline: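 In this SPA format, the 60-min room-temperature reaction used 0.025 μCi [8-3H]cAMP and diluted full-length PDE3A from Sf9 cells. Percentage activity was plotted against log compound concentration to derive IC50.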

human full length PDE3B = human full length PDE3B (Homo sapiens (Human), UniProt Q13370); assay: Assay 5 PDE3B enzyme inhibition (3H-cAMP SPA); assay type: biochemical; details: Sf9 cell extract
Sequence of human full length PDE3B (Q13370 whole entry): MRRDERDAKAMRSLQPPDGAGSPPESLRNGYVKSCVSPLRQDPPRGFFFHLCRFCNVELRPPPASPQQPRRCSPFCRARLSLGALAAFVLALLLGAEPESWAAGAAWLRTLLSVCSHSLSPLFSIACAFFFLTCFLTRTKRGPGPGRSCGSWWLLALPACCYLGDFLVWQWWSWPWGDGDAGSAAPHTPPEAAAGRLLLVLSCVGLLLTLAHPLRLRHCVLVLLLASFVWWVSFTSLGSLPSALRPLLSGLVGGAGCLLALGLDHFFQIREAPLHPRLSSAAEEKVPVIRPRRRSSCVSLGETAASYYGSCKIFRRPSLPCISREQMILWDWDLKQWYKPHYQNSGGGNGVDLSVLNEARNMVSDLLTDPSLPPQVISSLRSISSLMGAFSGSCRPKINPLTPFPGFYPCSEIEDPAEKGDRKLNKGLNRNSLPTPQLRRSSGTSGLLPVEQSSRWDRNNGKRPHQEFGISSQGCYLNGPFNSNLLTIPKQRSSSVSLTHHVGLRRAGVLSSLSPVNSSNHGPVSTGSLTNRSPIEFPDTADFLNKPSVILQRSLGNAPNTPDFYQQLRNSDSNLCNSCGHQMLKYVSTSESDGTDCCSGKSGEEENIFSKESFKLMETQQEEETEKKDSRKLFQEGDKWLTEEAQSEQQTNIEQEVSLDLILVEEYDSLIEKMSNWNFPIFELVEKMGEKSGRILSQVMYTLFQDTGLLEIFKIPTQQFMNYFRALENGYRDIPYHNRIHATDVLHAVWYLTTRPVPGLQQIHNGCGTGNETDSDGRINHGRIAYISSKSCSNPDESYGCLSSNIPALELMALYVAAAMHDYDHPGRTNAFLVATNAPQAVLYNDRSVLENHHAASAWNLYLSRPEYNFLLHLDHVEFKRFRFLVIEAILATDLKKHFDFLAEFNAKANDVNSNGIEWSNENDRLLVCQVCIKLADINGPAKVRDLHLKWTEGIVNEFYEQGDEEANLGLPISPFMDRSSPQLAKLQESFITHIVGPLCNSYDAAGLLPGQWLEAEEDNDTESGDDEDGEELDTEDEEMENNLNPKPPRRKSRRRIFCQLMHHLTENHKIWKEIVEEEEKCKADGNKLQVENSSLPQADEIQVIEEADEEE
Outline: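 Inhibition was measured by scintillation proximity using [8-3H]adenosine 3′,5′-cyclic phosphate as substrate and full-length human PDE3B from an Sf9 overexpression extract, run one hour at room temperature at pH 7.5.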

Row | SMILES | IC50 (HeLa cells) [nM] | IC50 (SK-MEL-3 cells) [nM] | IC50 (human full length PDE3A) [nM] | IC50 (human full length PDE3B) [nM]
1 | Cc1ncc(-c2ccc(C3=NNC(=O)OC3)cc2C)cn1 [Example 28, 5-[3-Methyl-4-(2-methylpyrimidin-5-yl)phenyl]-3,6-dihydro-2H-1,3,4-oxadiazin-2-one] | 14 | 28 | 31 | 40
2 | Cc1cc(C2=NNC(=O)OC2)ccc1-c1ccnn1C [Example 29, 5-[3-Methyl-4-(1-methyl-1H-pyrazol-5-yl)phenyl]-3,6-dihydro-2H-1,3,4-oxadiazin-2-one] | 46 | > 100 | 300 | 160
3 | Cc1ccc(-c2ccc(C3=NNC(=O)OC3)cc2C(F)(F)F)cc1O [Example 35, 5-[3′-Hydroxy-4′-methyl-2-(trifluoromethyl)biphenyl-4-yl]-3,6-dihydro-2H-1,3,4-oxadiazin-2-one] | 39 | 25 | 79 | 75
4 | O=C1NN=C(c2ccc(-c3ccc(C(F)(F)F)nc3)c(C(F)(F)F)c2)CO1 [Example 36, 5-{3-(Trifluoromethyl)-4-[6-(trifluoromethyl)pyridin-3-yl]phenyl}-3,6-dihydro-2H-1,3,4-oxadiazin-2-one] | 23 | 39 | 280 | 320
5 | O=C1NN=C(c2ccc(-c3ccc(F)c(O)c3)c(C(F)(F)F)c2)CO1 [Example 37, 5-[4′-Fluoro-3′-hydroxy-2-(trifluoromethyl)biphenyl-4-yl]-3,6-dihydro-2H-1,3,4-oxadiazin-2-one] | 37 | 12 | 150 | 130
6 | Nc1cc(-c2ccc(C3=NNC(=O)OC3)cc2C(F)(F)F)c(F)cc1F [Example 38, 5-[5′-Amino-2′,4′-difluoro-2-(trifluoromethyl)biphenyl-4-yl]-3,6-dihydro-2H-1,3,4-oxadiazin-2-one] | 83 | > 100 | 210 | 260
7 | Cc1ccc(-c2ccc(C3=NNC(=O)OC3)cc2C(F)(F)F)cc1N [Example 42, 5-[3′-Amino-4′-methyl-2-(trifluoromethyl)biphenyl-4-yl]-3,6-dihydro-2H-1,3,4-oxadiazin-2-one] | 55 | 64 | 170 | 250
8 | Nc1cccc(-c2ccc(C3=NNC(=O)OC3)cc2C(F)(F)F)c1F [Example 43, 5-[3′-Amino-2′-fluoro-2-(trifluoromethyl)biphenyl-4-yl]-3,6-dihydro-2H-1,3,4-oxadiazin-2-one] | 34 | 48 | 96 | 85
9 | Nc1ccc(-c2ccc(C3=NNC(=O)OC3)cc2C(F)(F)F)c(F)c1 [Example 44, 5-[4′-Amino-2′-fluoro-2-(trifluoromethyl)biphenyl-4-yl]-3,6-dihydro-2H-1,3,4-oxadiazin-2-one] | 14 | 9 | 190 | 200
10 | Cc1n[nH]cc1-c1ccc(C2=NNC(=O)OC2)cc1C(F)(F)F [Example 46, 5-[4-(3-Methyl-1H-pyrazol-4-yl)-3-(trifluoromethyl)phenyl]-3,6-dihydro-2H-1,3,4-oxadiazin-2-one] | 21 | 34 | 27 | 17

The next compounds have a lower IC50 (HeLa cells) than those just listed; values first:

Row | IC50 (HeLa cells) [nM] | IC50 (SK-MEL-3 cells) [nM] | IC50 (human full length PDE3A) [nM] | IC50 (human full length PDE3B) [nM] | SMILES
11 | 2 | 3 | 44 | 22 | C[C@@H]1OC(=O)NN=C1c1ccc(N2CCOCC2)c(F)c1 [Example 25-1, (6S)-5-(3-Fluoro-4-morpholinophenyl)-6-methyl-3,6-dihydro-2H-1,3,4-oxadiazin-2-one]
12 | 3 | 5 | 17 | 15 | C[C@@H]1OC(=O)NN=C1c1cc(F)c(N2CCOCC2)c(F)c1 [Example 25-2, (6S)-5-(3,5-Difluoro-4-morpholinophenyl)-6-methyl-3,6-dihydro-2H-1,3,4-oxadiazin-2-one]
13 | 9 | 29 | 700 | 270 | O=C1NN=C(c2ccc(N3CCC(F)(F)C3)c(F)c2)CO1 [Example 26, 5-[4-(3,3-Difluoropyrrolidin-1-yl)-3-fluorophenyl]-3,6-dihydro-2H-1,3,4-oxadiazin-2-one]
14 | 2 | 6 | 75 | 110 | Cc1cc(C2=NNC(=O)OC2)ccc1-c1ccccc1 [Example 27, 5-(2-Methylbiphenyl-4-yl)-3,6-dihydro-2H-1,3,4-oxadiazin-2-one]
15 | 1 | 4 | 99 | 79 | O=C1NN=C(c2ccc(-c3ccc(F)cc3)c(F)c2)CO1 [Example 30, 5-(2,4′-Difluorobiphenyl-4-yl)-3,6-dihydro-2H-1,3,4-oxadiazin-2-one]
16 | 5 | 7 | 67 | 110 | Cc1ccc(-c2ccc(C3=NNC(=O)OC3)cc2C(F)(F)F)cn1 [Example 32, 5-[4-(6-Methylpyridin-3-yl)-3-(trifluoromethyl)phenyl]-3,6-dihydro-2H-1,3,4-oxadiazin-2-one]
17 | 6 | 10 | 65 | 80 | O=C1NN=C(c2ccc(-c3cccnc3)c(C(F)(F)F)c2)CO1 [Example 33, 5-[4-(Pyridin-3-yl)-3-(trifluoromethyl)phenyl]-3,6-dihydro-2H-1,3,4-oxadiazin-2-one]
18 | 3 | 765 | 100 | 100 | Nc1ccc(-c2ccc(C3=NNC(=O)OC3)cc2C(F)(F)F)cc1 [Example 34, 5-[4′-Amino-2-(trifluoromethyl)biphenyl-4-yl]-3,6-dihydro-2H-1,3,4-oxadiazin-2-one]
19 | 4 | 6 | 72 | 75 | Nc1ccc(-c2ccc(C3=NNC(=O)OC3)cc2C(F)(F)F)cc1F [Example 39, 5-[4′-Amino-3′-fluoro-2-(trifluoromethyl)biphenyl-4-yl]-3,6-dihydro-2H-1,3,4-oxadiazin-2-one]
20 | 5 | 7 | 42 | 39 | Nc1ccc(-c2ccc(C3=NNC(=O)OC3)cc2C(F)(F)F)cn1 [Example 40, 5-[4-(6-Aminopyridin-3-yl)-3-(trifluoromethyl)phenyl]-3,6-dihydro-2H-1,3,4-oxadiazin-2-one]
21 | 10 | 21 | 31 | 31 | Nc1cc(-c2ccc(C3=NNC(=O)OC3)cc2C(F)(F)F)ccc1Cl [Example 41, 5-[3′-Amino-4′-chloro-2-(trifluoromethyl)biphenyl-4-yl]-3,6-dihydro-2H-1,3,4-oxadiazin-2-one]
22 | 3 | 4 | 43 | 34 | Cn1cc(-c2ccc(C3=NNC(=O)OC3)cc2C(F)(F)F)cn1 [Example 45, 5-[4-(1-Methyl-1H-pyrazol-4-yl)-3-(trifluoromethyl)phenyl]-3,6-dihydro-2H-1,3,4-oxadiazin-2-one]
23 | 2 | 2 | 53 | 33 | O=C1NN=C(c2ccc(-c3ccc4cn[nH]c4c3)c(C(F)(F)F)c2)CO1 [Example 47, 5-[4-(1H-Indazol-6-yl)-3-(trifluoromethyl)phenyl]-3,6-dihydro-2H-1,3,4-oxadiazin-2-one]
24 | 8 | 16 | 240 | 240 | Cc1ncc(-c2ccc(C3=NNC(=O)OC3)cc2C(F)(F)F)cc1F [Example 48, 5-[4-(5-Fluoro-6-methylpyridin-3-yl)-3-(trifluoromethyl)phenyl]-3,6-dihydro-2H-1,3,4-oxadiazin-2-one]
